Measured values published in a melting point compilation (Tetko et al.; mined from patent text by program, amines drawn as free bases though some values may be those of a salt).

First: CC[C@H](Cc1sccc1Cl)Nc1ccnc(O)c1[N+](=O)[O-]
Second: CN(C)CCNc1ccc(S(C)(=O)=O)cc1[N+](=O)[O-]
The melting point of the first is higher: 150 to 152 °C for the first, 130 to 131 °C for the second.

First: Cc1cc(S(N)(=O)=O)sc1S(=O)(=O)CCO
Second: C=C(C)C(=O)OCCNC(=O)Nc1nc(=O)cc(C)[nH]1
The melting point of the first is lower: 144 to 148 °C for the first, 208 °C for the second.

Nc1ncc2cc(-c3c(Br)cccc3Br)c(N)nc2n1 and Nc1ccc2ncnc(Nc3cccc(Cl)c3)c2c1 cannot be ordered by melting point: 284 to 289 °C for the first, greater than 150 °C for the second.

First: Clc1cccc(OCCBr)c1Cl
Second: Clc1cnc2c(C(Cl)(Cl)Cl)cc(Cl)cc2c1
The melting point of the first is lower: 51 to 56 °C for the first, 198 °C for the second.

First: CCCCC12CCC3C4CCC(=O)C=C4CCC3C1CCC2O (configuration not stated)
Second: CCCCN1CCOC2c3cccc4[nH]cc(c34)CC21 (configuration not stated)
The melting point of the first is higher: 169 to 170 °C for the first, 134 to 140 °C for the second.

Compared with COc1cc2c(cc1OC)CN(CCCCc1ccc(NC(=O)c3nc4ccccc4nc3C)cc1)CC2, CCOCc1nc2c(N)nc3ccccc3c2n1CCOCCNC(=O)Nc1ccccc1 is higher in melting point: 146 °C for the first, 183 to 186 °C for the second.

Compared with COC(=N)N1CCC(c2nn(-c3ccc(C(F)(F)F)cc3)c3ccccc23)CC1, O=C(Nc1ccc(-n2nc(C(F)(F)F)cc2C(F)(F)F)nc1)c1ccccc1Cl is higher in melting point: 113 to 115 °C for the first, 156 to 159 °C for the second.

First: CC(C)N1CC([N+](=O)[O-])=C(NCC(=O)O)C1=O
Second: O=C(O)CCCNC(=O)n1cc(F)c(=O)[nH]c1=O
The melting point of the first is higher: 180 to 185 °C for the first, 146 to 147 °C for the second.

First: CCCn1c(=O)n(-c2ccc3c(c2)OCO3)c2ncc(NC(=O)OCC)cc21
Second: CS(=O)(=O)c1ccc(N2CC(O)(C(F)(F)F)N=C2c2ccc3c(c2)OCO3)cc1 (configuration not stated)
The melting point of the first is lower: 146 to 147 °C for the first, 200 to 202 °C for the second.

First: CC(C#N)c1cccc2c(-c3ccc(Cl)cc3)nccc12 (configuration not stated)
Second: Cc1nccn1-c1nc(-c2ccc(Cl)cc2)c(CCC(N)=O)o1
The melting point of the first is lower: 128 to 130 °C for the first, 215 to 216 °C for the second.

Compared with O=C(NOCC(O)CO)c1cc(Br)c(F)c(F)c1Nc1ccccc1F (configuration not stated), COC(=O)[C@]1(C)Cc2c([nH]c3ccc(Br)cc23)[C@@H](c2cccc(O)c2)N1 (racemic) is higher in melting point: 144 °C for the first, 240 to 241 °C for the second.

Compared with CCOC(=O)C=Cc1ccc(NCCOC)cc1, CCOC(=O)c1c(C)nn(-c2cccc(C)c2)c1C is lower in melting point: 49.9 to 53.4 °C for the first, 46.5 to 47.5 °C for the second.

Compared with CCOC1=CCc2c(OC)ccc(OC)c2C1, CCOc1cc(C(=O)OC)cc(OCC)c1N=Nc1ccccc1 is lower in melting point: 102 to 103 °C for the first, 92 °C for the second.

First: COc1ccc(OC)c2c(C#C[Si](C)(C)C)c3ccccc3nc12
Second: COc1ccc(C2=NN(C3CCN(S(=O)(=O)c4ccc(C#N)cc4)CC3)C(=O)C(C)(C)C2)cc1OC
The melting point of the first is lower: 110 to 111 °C for the first, 161 to 163 °C for the second.

Compared with Cc1c(N)cc([N+](=O)[O-])c(N)c1C, CONC(=O)Cc1cccc(C(=O)c2ccc(Cl)cc2)c1C is lower in melting point: 159 °C for the first, 150 °C for the second.

Compared with O=C(Cc1cccc(C(=O)O)c1)Nc1cccc(/C=C/c2nc(C3CCC3)cs2)c1, O=C(NC1CCOCC1)c1ccc(-c2cc(-c3c(-c4cccc(Cl)c4)nc4ccccn34)ccn2)cc1 is higher in melting point: 208 to 209 °C for the first, 234 °C for the second.

First: COC(=O)c1ccc(OCC2CO2)cc1O (configuration not stated)
Second: CC(=O)NCC1CN(c2ccc(N3CCN(c4nnc(C)s4)CC3)c(F)c2)C(=O)O1 (configuration not stated)
The melting point of the first is lower: 53 to 55 °C for the first, 247 to 249 °C for the second.

Compared with CCCCCCCCCCCCCCOc1cccc(C(=O)N(CC(=O)O)CC(=O)O)c1, O=C(O)C(Cl)(Cl)CCCCCCCCCCC#Cc1ccccc1 is higher in melting point: 96 to 99 °C for the first, 155 to 157 °C for the second.

Compared with COc1ccc(-c2c(Cl)c(CN3C(=O)CCC3=O)nc3sc4c(c23)CCC(C(=O)O)C4)cc1 (configuration not stated), O=C(c1ccc(OCCN2CCCC2)cc1)c1c(-c2ccc(Cl)cc2)sc2ccccc12 is lower in melting point: 258 to 259 °C for the first, 97 to 98 °C for the second.

First: COc1ccccc1-c1cncc(OC2SCC(O)C(O)C2O)c1 (configuration not stated)
Second: CC1c2ccccc2CC(O)Cc2ccccc21 (configuration not stated)
The melting point of the first is higher: 209 to 211 °C for the first, 142 to 145 °C for the second.

Cc1cc2n(n1)-c1ccc(Cl)cc1C(c1ccccc1)NC2=O (configuration not stated) and CS(=O)(=O)c1ccc(-c2cnn(-c3ccc(Cl)cc3F)c(=O)c2-c2ccc(F)cc2)cc1 cannot be ordered by melting point: 258 to 261 °C for the first, 250 to 260 °C for the second.

First: CCOC(=O)c1cn(C2CC2)c2nc(N3C[C@@H](CN(C)C(=O)C(F)(F)F)[C@@H](F)C3)c(F)cc2c1=O (relative stereo)
Second: C=CCOc1cc(C(=O)OCC)nc2c(CCC)c3oc(C(=O)OCC)cc(=O)c3cc12
The melting point of the first is higher: 177 to 179 °C for the first, 151 to 153 °C for the second.

First: NC[C@H]1CN(c2ccc(N3CCOCC3=O)cc2)C(=O)O1
Second: O=C1c2ccccc2CCC1n1cncn1 (configuration not stated)
The melting point of the first is higher: 145 to 147 °C for the first, 96 to 98 °C for the second.

First: CCNC(=O)Nc1nc2cc(-c3cccnc3)cc(OCCN(C)C)n2n1
Second: O=C(NCCN1CCCCC1)c1nc(NCC(c2ccccc2)c2ccccc2)c2nc[nH]c2n1
The melting point of the first is lower: 200 to 202 °C for the first, 222 °C for the second.

Compared with CC(C)(C)SC(=O)C=CC1C(C(=O)OCc2ccc(F)c(Oc3ccccc3)c2)C1(C)C (configuration not stated), C#Cc1cc(C=Cc2cc(C(C)(C)C)cc(C(C)(C)C)c2)cc(C=Cc2cc(C(C)(C)C)cc(C(C)(C)C)c2)c1 is higher in melting point: 82 °C for the first, 156 to 157 °C for the second.

First: NC(=NCC(F)(F)F)Nc1ccnc(SCCCC(=O)O)n1
Second: COCSCCNC(=C[N+](=O)[O-])SC
The melting point of the first is higher: 234 to 236 °C for the first, 54 to 58 °C for the second.
